The values below come from US7442375B2, “Compositions of beta-defensin inducing agents” (Case Western Reserve University, priority 2002, dated 2008).

In one experiment the test system is HIV-1 R5 B-93US142. It is filed as cell-based. On the procedure: (§1) HIV-1 strains (X4 HXB2 and R5 93US142) were incubated in 10 mM PB with increasing concentrations of hBD and used to infect GHOST X4/R5 cells. (a) Qualitative determination of HIV-1 infection, measured by GFP fluorescence, in the absence (−C) and presence (+C) of virus preincubated in 10 mM PB. (b) Anti-HIV-1 activity of hBD in GHOST X4/R5 cells using fluorescence microscopy. (c) Anti-HIV-1 activity of hBD measured by RT activity in cell-free culture supernatant, relative to the positive control (i.e., HIV-1 infection in the absence of hBD). (d) Antiretroviral activity of hBD against CXCR4- and CCR5-tropic HIV-1 strains in three different environments: DMEM+10% FBS (complete medium); DMEM alone (Medium no FBS); 10 mM PB. Viruses were incubated with 20 μg/ml of each hBD for 1 h in each condition and used to infect CEM X4/R5 cells as described. Results are representative of three independent experiments.
(§2) HIV-1 isolates were incubated with increasing concentrations (5-40 μg/ml) of hBD-1, -2, and -3, in three different conditions: high salt complete medium (RPMI-1640 or DMEM supplemented with 10% fetal bovine serum, FBS); high salt medium in the absence of FBS; or low salt medium (10 mM phosphate buffer), 37° C. for 1 h. Respective mixtures were used to infect PBMC, Ghost X4/R5 or CEM X4/R5 cells at an MOI of […]. After 2 h incubation at 37° C., 5% CO2, cells were washed three times with phosphate-buffered saline (PBS) and cultured in complete medium for 48 h. In the case of Ghost X4/R5 cells, these were washed, resuspended in PBS, and analyzed by fluorescence microscopy for GFP expression as described [Morner et al.]. Cell-free supernatants from PBMC, Ghost X4/R5 and CEM X4/R5 cultures were used to monitor infectivity by the reverse transcriptase (RT) assay [Quinones-Mateu et al.]. The 50% inhibitory concentration (IC50) of each hBD was determined using X4 or R5 HIV-1 isolates. Viruses (0.01 MOI) were incubated with increasing concentrations of hBD-1, -2, and 3 (up to 40 µg/ml) in low salt medium for 1 h and used to infect CEM X4/R5 cells. After 2 h incubation at 37° C., 5% CO2, cells were washed twice with PBS and cultured in complete medium. Supernatant samples were removed on day 5 post-infection and virus production was measured using […] the RT assay [Id.]. Cytotoxicity of hBD was quantified by determining the number of viable cells using a tetrazolium-based colorimetric (MTT) assay [Pauwels et al.].
(§3) Since the antibacterial activity of beta-defensins is sensitive to high salt and serum concentrations, the anti-HIV-1 activity of hBD was initially evaluated in a low salt, serum free environment, mimicking oral mucosal conditions [Mandel et al.]. Two HIV-1 isolates (X4 B-HXB2 and R5 B-93US142) were preincubated for 1 h with increasing concentrations of recombinant hBD-1, -2, and -3, in 10 mM phosphate buffer (PB). GHOST CCR5/CXCR4 cells were then exposed to the mixtures for 48 h in complete medium. […] When CXCR4- and CCR5-tropic HIV-1 strains were preincubated with beta-defensins in high salt medium (DMEM) supplemented with 10% FBS, no antiviral effect was detected (FIG. 4d). However, preincubation in DMEM without FBS inhibited replication of X4, but not R5, HIV-1 isolates (FIG. 4d). Under low salt conditions (i.e., 10 mM PB, no FBS) the 50% inhibitory concentration for both agents against X4 and R5 viruses ranged from 9 to 19 μg/ml and 20 to 40 μg/ml, respectively.

The subject of another experiment is HIV-1 X4 B-HXB2. It counts as cell-based. On the procedure: as §1, §2, §3
A further experiment addresses CCR5 (Homo sapiens, UniProt P51681). Put plainly: Flow cytometric analysis of co-receptor surface expression on unstimulated PBMC. It is filed as cell-based. Details: endogenous in cells; host or cells: unstimulated peripheral blood mononuclear cells (PBMC). The following applies: 30 μg/ml, 3 h, high salt medium without FBS. On the procedure: (§4) Unstimulated PBMC were treated for 3 hrs with hBD-1, -2, or -3 (30 μg/ml) in DMEM (high salt) in the absence of FBS. The CXCR4 natural ligand SDF-1AE (2 μg/ml) and the CCR5 antagonist PSC-RANTES (100 nM) were used as positive controls. CXCR4 and CCR5 surface expression was calculated using known ratios of QuantiBRITE-PE beads (Becton Dickenson) by flow cytometry. Results are the means of seven experiments±SD.
(§5) Unstimulated PBMC were treated with 30 μg/ml hBD-1, -2, or -3 in high salt medium (RPMI-1640) in the absence of FBS, 3 h. The CXCR4 natural ligand SDF-1α (R&D Systems, Minneapolis, Minn., USA) and the CCR5 antagonist PSC-RANTES were used as controls. Cells were incubated with peridinin chlorophyll protein-conjugated anti-human CD4 antibody, and either phycoerythrin (PE)-conjugated anti-human CXCR4 antibody, PE-conjugated anti-human CCR5 antibody, or PE-conjugated mouse immunoglobulin G2a (IgG2a), isotype standard (PharmMingen, San Diego, Calif., USA) [Salkowitz et al.]. Fluorescence intensity was reported as receptor density by quantitative flow cytometry (FACSCaliber; Becton Dickenson, San Jose, Calif., USA) [Iyer et al.]. Data were analyzed using CELLQuest software (Becton Dickenson).
(§6) Surface expression of CXCR4 was decreased by 51%±18% and 52%±20% (SD) respectively after incubation with 30 μg/ml of hBD-2 or hBD-3 (FIG. 5).
On the technique in general: A flow cytometer gives signals particle by particle.

For the next experiment, the target named is CXCR4 (Homo sapiens, UniProt P61073). The experiment is described as above. Also on record: endogenous in cells; host or cells: unstimulated peripheral blood mononuclear cells (PBMC). The settings on record: 30 μg/ml, 3 h, high salt medium without FBS. It counts as cell-based. On the procedure: as §4, §5, §6
Chain of CXCR4 (P61073 whole entry): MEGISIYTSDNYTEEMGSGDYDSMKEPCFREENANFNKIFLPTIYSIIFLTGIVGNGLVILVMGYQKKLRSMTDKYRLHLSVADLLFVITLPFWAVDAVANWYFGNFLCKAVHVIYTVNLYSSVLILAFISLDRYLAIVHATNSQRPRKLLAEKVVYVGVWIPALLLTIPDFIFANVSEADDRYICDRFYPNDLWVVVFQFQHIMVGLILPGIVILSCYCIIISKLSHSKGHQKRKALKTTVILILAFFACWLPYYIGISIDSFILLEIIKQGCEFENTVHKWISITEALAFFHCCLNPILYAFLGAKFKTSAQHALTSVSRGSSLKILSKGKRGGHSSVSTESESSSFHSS
Experiment [1] has as its system epithelial beta defensin genes. The settings on record: appears to involve NF-kappaB/rel; cited from earlier work.
In experiment [2] the test system is hBD-2 mRNA. The following applies: 1.7 mM in culture medium, epidermal cells; cited from earlier work.
In experiment [3] the test system is hBD-3 mRNA. The following applies: 1.7 mM in culture medium, epidermal cells; cited from earlier work.
A further experiment concerns hBD-1 mRNA. Briefly: Real-time RT-PCR assay to quantify hBD mRNA in NHOEC. It is filed as cell-based. The settings on record: normal human oral epithelium and cells; positive control of FIG. 3. The procedure: (§7) NHOEC monolayers were exposed to X4 HIV-1 strains B-HXB2 and B-NL4-3 or R5 strains B-93US142 and B-92US660 at an MOI of 0.01 infectious unit/cell. After 48 h, hBD-1, -2, and -3 mRNA expression was determined by real-time PCR. (a) Standard curves generated using the relationship of known number of input templates to the cycle threshold (i.e., PCR cycle number at which the mean fluorescence increases to 10 SD above baseline). Cycle threshold is directly proportional to the log of the input copy equivalents. Linear dynamic ranges and regression values are indicated. (b) Quantification of hBD mRNA in the presence and absence of HIV-1. (c) Comparison of hBD expression relative to the uninfected culture. PMA, phorbol myristate acetate, positive control. Results are representative of three independent experiments.
(§8) RNA was extracted from NHOEC monolayers post HIV-1 challenge [multiplicity of infection (MOI), 0.01 infectious unit/cell] using TRIzol according to the manufacturer's protocol (Invitrogen Life Technologies, Carlsbad, Calif., USA). Human keratin 5 RNA was used to normalize RNA content in each preparation. Intron spanning primers used and PCR conditions for these reactions have been described previously [Krisanaprakorkit et al., 1998 and 2000; Harder et al.]. Each 25-μl PCR mixture consisted of 125 ng RNA, primers (0.4 μM each), 0.4 mM dNTPs, 5 mM MgCl2, a mixture of reverse transcriptase and Taq DNA polymerase, 1 3 PCR buffer, RNase inhibitor (5 U), and SYBR Green dye diluted 1:2500 (Sigma, St. Louis, Mo., USA) as described [Weber et al.]. Standard curves were constructed using RNA generated by transcribing hBD-1, -2, or -3 plasmids using the RiboProbe in vitro transcription system (Promega, Madison, Wis., USA). Concentration of mRNAs was determined by spectrometry at 260 nm. […]
(§9) NHOEC monolayers were challenged with four different HIV-1 strains representing both viral bio-phenotypes (i.e., SI/X4, B-HXB2 and B-NL4-3; NSI/R5, B-93US142 and B-92US660) Forty-eight hours postinfection, hBD-1, -2, and -3 mRNA expression was measured by real-time PCR. […]
(Quantitative PCR measures a nucleic acid by following its amplification.)

For experiment [4], the system named is hBD-2 mRNA. The experiment is described as above. It is filed as cell-based. The settings on record: normal human oral epithelium and cells; positive control of FIG. 3. The procedure: as §7, §8, §9
The subject of experiment [5] is hBD-3 mRNA. The experiment is described as above. The settings on record: normal human oral epithelium and cells; positive control of FIG. 3. It counts as cell-based. The procedure: as §7, §8, §9
Where [6] appears, read: 20 μg/ml, preincubation in 10 mM PB.
Where [7] appears, read: virus preincubated 1 h with hBD in 10 mM PB, GHOST cells 48 h, GFP fluorescence.

Where two headings read alike, the source gives them in different places. Positions of bridges follow the written chain, without caps; N, C: chain ends. No end group written: not given here.

Chain of CCR5 (P51681 whole entry): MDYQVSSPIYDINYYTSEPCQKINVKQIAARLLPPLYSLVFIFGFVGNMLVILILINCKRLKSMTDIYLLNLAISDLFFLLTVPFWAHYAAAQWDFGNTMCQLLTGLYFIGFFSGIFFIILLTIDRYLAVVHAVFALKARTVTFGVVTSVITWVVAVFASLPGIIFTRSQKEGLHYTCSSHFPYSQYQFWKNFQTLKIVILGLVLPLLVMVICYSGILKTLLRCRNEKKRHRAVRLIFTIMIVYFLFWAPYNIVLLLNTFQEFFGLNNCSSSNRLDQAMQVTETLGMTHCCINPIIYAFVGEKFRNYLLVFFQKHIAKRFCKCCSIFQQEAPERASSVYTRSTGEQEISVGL

With “GIGDPVTCLKSGAICHPVFCPRRYKQIGTCGLPGTKCCKKP (disulfide 8-37, 15-30, 20-38) [hBD-2]”, the results for the “inhibition (RT activity relative to positive control)” value with HIV-1 R5 B-93US142 (setting [6]) and in the experiment with HIV-1 X4 B-HXB2 (setting [6]) were 15% and 61%, respectively.
Consider “hBD-1: Recombinant human β-defensin 1 produced from infection of Sf21 cells with baculovirus constructs (DHYNCVSSGGQCLYSACPIFTKIQGTCYRGKAKCCK; ends and bridges not checked; cysteine pairing not given here; UniProt P60022 33-68, looked up)”, for which the anti-HIV-1 activity result with HIV-1 R5 B-93US142 (setting [7]) and in the experiment with HIV-1 X4 B-HXB2 (setting [7]) was “no effect” in each case. Further, the “effect on CCR5 expression” value in the experiment with CCR5 is on record as “not altered”. For the same molecule, the “effect on surface expression of CXCR4” value with CXCR4 is given as “did not affect”.
With `CC[C@H](C)[C@H](N)C(=O)O` [isoleucine-1], the “transcription of epithelial beta defensin genes” value in [1] was “can activate transcription”.
In the case of `[Ca+2]` [calcium], the “HBD-2 mRNA expression” value in the experiment on hBD-2 mRNA [2] was “sufficient to induce”. Also, the “HBD-3 mRNA expression” value with hBD-3 mRNA [3] is “sufficient to induce”.
For the molecule `CCCCCCCCCCCCCC(=O)O[C@@H]1[C@@H](C)[C@@]2(O)[C@@H](C=C(CO)C[C@]3(O)C(=O)C(C)=C[C@@H]23)[C@@H]2C(C)(C)[C@]12OC(C)=O` [phorbol myristate acetate], in the experiment on hBD-1 mRNA, the “HBD-1 mRNA expression” value was “not”. Moreover, in the experiment with hBD-2 mRNA [4], the “HBD-2 mRNA expression” value was “induces”. Also, in the experiment with hBD-3 mRNA [5], the “HBD-3 mRNA expression” value was “induces”.
